Laboratory results from publication PMC3173463, “Discovery of Dual-Action Membrane-Anchored Modulators of Incretin Receptors” (PLoS ONE, 2011).
Where no end group is shown, it is not given here.

What was measured:
GLP-1R = target: T1, GLP-1R (Homo sapiens, UniProt P43220); experiment: CRE luciferase reporter gene assay, membrane-tethered ligand co-transfected with GLP-1R; type: cell-based; details: CRE6X-LUC, relative to wild-type tethered construct; Figure 2A-B
T1 construct: expressed in transfected cells; host or cells: HEK293 cells, transient transfection, pcDNA1.1 plasmid
T1 sequence (P43220 24-463): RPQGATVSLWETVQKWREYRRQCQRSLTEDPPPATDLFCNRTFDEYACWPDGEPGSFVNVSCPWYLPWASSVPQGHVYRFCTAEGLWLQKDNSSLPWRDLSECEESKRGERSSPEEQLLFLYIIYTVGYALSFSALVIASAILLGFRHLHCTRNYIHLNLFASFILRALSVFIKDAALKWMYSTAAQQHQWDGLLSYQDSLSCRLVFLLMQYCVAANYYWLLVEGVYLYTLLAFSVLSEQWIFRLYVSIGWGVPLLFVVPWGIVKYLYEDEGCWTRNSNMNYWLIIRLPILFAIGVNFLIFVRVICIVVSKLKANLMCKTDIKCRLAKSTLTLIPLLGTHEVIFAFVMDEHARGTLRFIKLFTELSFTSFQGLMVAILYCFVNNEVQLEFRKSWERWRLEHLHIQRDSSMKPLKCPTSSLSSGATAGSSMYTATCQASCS
Procedure: Figure 2 Activity and selectivity of wild-type and G^7/K^7 derivatives of tGLP-1 and tEXE4. […] HEK 293 cells were transiently transfected with cDNAs encoding the GLP-1R or GIP-R, a tethered ligand, and a CRE6X-LUC reporter gene construct. Twenty four hours post-transfection, ligand-induced activity was quantified as described in Methods. […] Data represent the mean ± SEM from at least 4 independent experiments, each performed at least in quadruplicate.
Receptor-mediated signaling was assessed using a previously described luciferase assay, [18]. In brief, HEK293 cells were plated at a density of 3000–6000 cells per well into clear-bottom, white 96-well plates and grown for 1–2 days to ∼80% confluency. […] Following ligand stimulation, the medium was gently aspirated, the cells were lysed and luciferase activity was quantified using a TopCount NTX after addition of Steadylite^R reagent (PerkinElmer, Boston, MA). […] Substrate cleavage (an index of β-galactosidase expression was quantified by measurement of optical density at 420 nm using a SpectraMax^R microplate reader (Molecular Devices, Sunnyvale, CA). Corresponding values were used to normalize the luciferase data for transfection efficiency.

GIP-R = target: T2, GIP-R (Homo sapiens, UniProt P48546); experiment: CRE luciferase reporter gene assay, soluble ligands on GIP-R expressing cells; type: cell-based; details: soluble peptides, 6 hours stimulation; Figure 3B
T2 construct: expressed in transfected cells; host or cells: HEK293 cells, transient transfection, pcDNA1.1 plasmid
T2 sequence (P48546 22-466): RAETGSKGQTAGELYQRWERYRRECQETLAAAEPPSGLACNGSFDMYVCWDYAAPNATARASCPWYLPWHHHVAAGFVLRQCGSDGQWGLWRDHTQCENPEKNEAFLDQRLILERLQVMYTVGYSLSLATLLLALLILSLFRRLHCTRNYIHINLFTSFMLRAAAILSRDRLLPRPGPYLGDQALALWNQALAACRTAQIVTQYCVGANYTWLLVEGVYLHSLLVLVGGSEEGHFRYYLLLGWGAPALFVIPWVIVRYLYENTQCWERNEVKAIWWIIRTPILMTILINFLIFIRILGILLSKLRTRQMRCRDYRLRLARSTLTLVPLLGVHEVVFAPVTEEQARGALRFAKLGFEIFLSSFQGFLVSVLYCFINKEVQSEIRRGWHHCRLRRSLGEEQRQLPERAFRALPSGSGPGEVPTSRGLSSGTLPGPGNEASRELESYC
Procedure: HEK293 cells were transiently transfected with cDNAs encoding the indicated receptor and a CRE6X-LUC reporter gene construct. Twenty four hours post-transfection, cells were stimulated for 6 hours with soluble peptides; ligand-induced activity was then quantified.
Receptor-mediated signaling was assessed using a previously described luciferase assay [15], [18]. In brief, HEK293 cells were plated at a density of 3000–6000 cells per well into clear-bottom, white 96-well plates and grown for 1–2 days to ∼80% confluency. Cells were then transiently transfected using Lipofectamine^R reagent (Invitrogen, Carlsbad, CA) with cDNAs encoding (i) a GPCR (or the empty expression vector), (ii) a tethered ligand (where applicable), (iii) the CRE6X-LUC reporter gene and (iv) β-galactosidase (as a control for transfection efficiency). For experiments investigating the agonist function of soluble peptides, tethered ligand cDNA was not included in the transfection reaction. Twenty four hours after transfection, cells were incubated with or without selected soluble peptide in serum-free medium for 6 hours. Following ligand stimulation, the medium was gently aspirated, the cells were lysed and luciferase activity was quantified using a TopCount NTX after addition of Steadylite^R reagent (PerkinElmer, Boston, MA).

HA-tagged GIP-R = HA-tagged GIP-R cell surface expression by ELISA; type: cell-based, human; details: HEK 293, HA-GIPR, ELISA 48 hours after transfection, soluble ligand added 24 h after transfection; Figure 4A
Procedure: The impact of soluble peptide (A), tethered ligands (B) and the interaction between soluble and tethered ligands on HA-GIPR surface expression (C) was measured by ELISA. HEK 293 cells were transfected with a plasmid encoding the HA-tagged GIP-R, with or without increasing amounts of a tethered ligand cDNA. Twenty four hours after transfection, soluble ligands were added in selected wells, as indicated. In each experiment, receptor expression was evaluated 48 hours after transfection. […] Data represent the mean ± SEM from at least 4 independent experiments, each performed in 12 replicates. The expression of HA-GIPR in the absence vs presence of soluble or tethered ligand were compared by analysis of variance followed by Dunnett's post-test; significance, *, p<0.05; **, p<0.01.
The surface expression levels of myc-tagged tethered ligands or HA-tagged GIP-Rs were assessed using a previously-established procedure [15], [18]. HEK293 cells grown in 96-well clear Primaria plates (BD Biosciences, Bedford, MA) were transiently transfected with either pcDNA1.1 or a cDNA encoding the relevant epitope-tagged proteins (tethered ligand and/or GIP-R). […] Light absorbance at 450 nm was quantified as a measure of protein expression) using a SpectraMax^R microplate reader.

GIPR-CHE = experiment: Confocal microscopy of GIPR-CHE subcellular distribution; type: cell-based, human; details: HEK 293, 18 hours treatment, Figure 5A
Procedure: The impact of selected soluble peptides (A) and tethered ligands (B) on the subcellular distribution of GIPR-CHE was studied using confocal microscopy. HEK 293 cells were transiently transfected with a plasmid encoding the GIPR-CHE, with or without cDNA encoding a GFP-tagged tethered ligand. Twenty-four hours later, the cells were treated for 18 hours with a soluble peptide or the corresponding vehicle, as indicated. The subcellular distribution of receptor was then visualized.
Cells were transfected with plasmids encoding GIPR-CHE and tEXE4-GFP or tGLP1-GFP. Twenty-four hours later, the cells were treated for 18 h with media containing 100 nM of soluble GIP, followed by confocal microscopy imaging.
HEK293 cells were plated at a density of 150,000 cells per dish onto poly-L-lysine coated 35 mm glass bottom dishes (MatTek Corporation, Ashland, MA) and grown for 1 day to ∼60–80% confluency. Cells were then transfected with cDNA encoding GIPR-CHE and a GFP-tagged tethered ligand construct. In some experiments, soluble peptides were added 24 hours after transfection and cells were incubated at 37°C for an additional 18–24 hours before imaging. Forty eight hours following transfection, the cells were washed once with PBS and fixed with 4% paraformaldehyde in PBS for 10 minutes. […]

Row | Substance | tethered ligand-induced activity at the GLP-1R (GLP-1R) | agonist activity of soluble peptide at the GIP-R (GIP-R) | GIP-R surface expression after prolonged incubation with soluble ligand (HA-tagged GIP-R) | GIPR-CHE subcellular distribution after soluble peptide (GIPR-CHE)
1 | [G^7]tGLP-1: membrane-tethered GLP-1 with glycine at position 7 (GAEGTFTSDVSSYLEGQAAKEFIAWLVKGRG; also: fused with epitope tag, linkers, membrane-anchoring sequence; UniProt P01275 98-128, looked up, variant H7G) | activity comparable to the corresponding unmodified ligands | – | – | –
2 | glucagon-like peptide-1 [GLP-1] | – | even lower potency agonist | no effect | –
3 | glucose-dependent insulinotropic polypeptide [GIP] | – | – | markedly reduced | massive GIPR-CHE endocytosis
